# From US11534437B2, “Methods of treating radiation induced gastrointestinal syndrome (RIGS) and related disease states using compound 512” (BCN Biosciences L.L.C., priority 2017, dated 2022)
# How the values were obtained:
# [1] = test system: HEK293 cells having TCF/LEF luciferase reporter construct; experiment: TCF/LEF luciferase reporter assay for canonical WNT activity; type: cell-based; details: LiCl 10 mM, 24 hr
# Method: To determine the canonical WNT activity in 512 (28.78 μM) HEK293 cells having TCF/LEF luciferase reporter construct were treated with 512 or vehicle control. LiCl (10 mM) treatment was used as positive control for luciferase activity. Luciferase activity was determined 24 hr after using Dual-Luciferase® Reporter Assay System (Promega) as per manufacturer's protocol. HEK293 cells having FOPFLASH construct were used as negative control. […] WNT-β catenin signaling is well known to promote the self renewal and differentiation of LGR5+ epithelial (lung, oral, intestinal) stem cells.
# [2] = test system: plasma cytokines; experiment: Plasma cytokine levels in rodents after lower thoracic radiation; type: in vivo; details: LTI + 512, 5 mg/kg 512
# Description: Ctl, control with no treatment. LTI, lower thoracic radiation, LTI+512, radiation, and 512. The cytokine phenotype is anti-inflammatory where IL-6 is an anti-inflammatory cytokine required for controlling local or systemic acute inflammatory responses and IL-1 is pro inflammatory and so forth.
SMILES,luciferase activity (positive control) [1],"plasma IL-6 level ([2]; Ctl 7, LTI 15)","plasma KC level ([2]; Ctl 10, LTI 210)","plasma IL-23 level ([2]; Ctl 13, LTI 79)","plasma MCP-1 level ([2]; Ctl 17, LTI 103)","plasma MIP-1b level ([2]; Ctl 25, LTI 88)","plasma IL-1b level ([2]; Ctl 32, LTI 50)"
[Cl-].[Li+] [LiCl],significant increase in Luciferase activity,,,,,,
"O=[N+]([O-])c1ccc(S(=O)(=O)N2CCN(c3ccccc3)CC2)cc1 [Compound 512, 1-[(4-nitrobenezene)sulfonyl]-4-phenyl piperazine]",,88,245,23,77,13,7
